These results are taken from PubChem BioAssay (NCI).

Common to all, as to assay: inhibition of tumour cell growth, NCI panel, 48 h
In assay [1] the test system is A549 NSCLC.
The test system of assay [2] is BT-549 breast.
Assay [3] concerns SF-295 CNS.
For assay [4], the system named is OVCAR-8 ovarian.
The test system of assay [5] is SNB-19 CNS.
Assay [6] concerns HCT-15 colon.
Assay [7] deals with SK-MEL-2 melanoma.
Assay [8] has as its system K-562 leukemia.

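Results reflect a 48-hour exposure of cells in 96-well plates to compound at five concentrations. GI50 is the concentration that inhibits growth by half. Definition used: TGI = concentration required for complete inhibition of growth.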

Turning to `C/C1=C/C(=O)O[C@@H]2C[C@@H](CC[C@H](C)/C=C\C=C\CC1)O[C@@](O)([C@@H]1CSC(=O)N1CO)C2`, the GI50 is 46.5 nM in assay [1]; 59.2 nM in assay [2]; 0.0414 µM in assay [3]; 1600 nM in assay [4]; 83.3 nM in assay [5]; 68.9 nM in assay [6]. Further, the results for the GI50 in assay [7] and in assay [8] were 79.6 nM and 213 nM, respectively. For the same compound, the TGI in assay [1] is greater than 46 µM; in assay [2], 20 µM; in assay [3], 20.5 µM; in assay [4], 74.6 µM; in assay [5], 0.671 µM; in assay [6], greater than 91.4 µM. Further, the figures for the TGI in assay [7] and in assay [8] were 34.9 µM and 27.1 µM, respectively.
In the case of `COc1cc2c3c(c4ccc(OC)c(OC)c4c2cc1OC)CN1CCC[C@@H]1C3`, the TGI in assay [2] was found to be 2.36 µM; in assay [3], 6.39 µM; in assay [4], 0.264 µM; in assay [5] it was 0.0826 µM; in assay [6], 11.4 µM; in assay [7], 0.237 µM. In addition, in assay [8], the TGI is greater than 100 µM.
In the case of `CNC(=O)c1c(NC(=O)c2ccc(C(F)(F)F)cc2)sc2c1CCC(=O)C2`, the GI50 in assay [1] was 1020 nM; in assay [2], 366 nM; in assay [3], 0.821 µM; in assay [4], 466 nM; in assay [5], 735 nM; in assay [6], 239 nM. The GI50 in assay [7] was 1360 nM; in assay [8], 193 nM. Besides, the TGI is 8.49 µM in assay [1]; 3.72 µM in assay [2]; 2.97 µM in assay [3]; greater than 37.1 µM in assay [4]; greater than 65.9 µM in assay [5]; 1.76 µM in assay [6]. The same compound had a TGI in assay [7] of 5.46 µM.
Take `Cc1ccc2c(c1)C(C)Cc1c(ncnc1-n1cnc3cc(C)ccc31)N2C` (centres undefined): the GI50 in assay [1] was 42.1 nM; in assay [2], 28.1 nM; in assay [4], 37 nM; in assay [5] it was 52.2 nM; in assay [6], 33.4 nM; in assay [7], 41.9 nM. Further, the GI50 in assay [8] was 34 nM. The TGI in assay [1] turned out to be 13.4 µM; in assay [2], 0.338 µM; in assay [4], 15.8 µM; in assay [5], 21.9 µM; in assay [6] it was 11.7 µM; in assay [7] it was 15.8 µM. Moreover, the TGI in assay [8] was found to be 16.5 µM.
As for `COc1ccccc1/C=C/C(=O)c1c(O)cc2occc2c1OC`, the GI50 in assay [1] is greater than 100000 nM; in assay [2] it was 28200 nM; in assay [3], 16.6 µM; in assay [4], 53800 nM; in assay [5], 30800 nM; in assay [6], greater than 100000 nM. In addition, the GI50 in assay [7] was greater than 100000 nM. Further, the TGI in assay [1] is greater than 100 µM; in assay [2] it was greater than 100 µM; in assay [3], 55.6 µM; in assay [4], greater than 100 µM; in assay [5], greater than 100 µM; in assay [6], greater than 100 µM. The TGI in assay [7] was greater than 100 µM.
`CCCOc1ccc(-c2nc(-c3ccc(N=Cc4ccc(N(CCOS(C)(=O)=O)CCOS(C)(=O)=O)cc4C)cc3)cs2)cc1`: the TGI in assay [1] is 34.2 µM; in assay [3] it was 45.5 µM; in assay [4], greater than 100 µM; in assay [5], greater than 94.5 µM; in assay [6] it was greater than 72.2 µM; in assay [7] it was 50.9 µM. The same compound registered a TGI in assay [8] greater than 100 µM.
Consider `C[C@H]1CC[C@H]([C@@H](C)[C@H]2[C@@H](O)C[C@H]3[C@@H]4CC[C@H]5C[C@@H](O)CC[C@]5(C)[C@H]4CC[C@]23C)NC1`, for which the TGI in assay [1] was 51 µM; in assay [2], 32.5 µM; in assay [3], 39.2 µM; in assay [4] it was 32.2 µM; in assay [5] it was 50.2 µM; in assay [6], 36.6 µM. This compound also showed a TGI in assay [7] of 46 µM.
`CO/[N+]([O-])=C\C(=O)N/C=C/C(=O)O`: the TGI in assay [2], in assay [3], in assay [4], in assay [5], in assay [6] and in assay [8] was greater than 100 µM throughout.
As to `COc1cc2c(c(OC)c1O)-c1ccc(OC)c(=O)cc1[C@@H](NC(=O)C(F)(F)F)CC2`, the TGI in assay [1], in assay [2], in assay [3], in assay [4], in assay [5] and in assay [6] was greater than 100 µM throughout. The TGI in assay [8] is greater than 100 µM.
As to `Fc1ccc(-c2nn3c(CNc4ccccc4)nnc3s2)cc1`, the GI50 in assay [1] was 36700 nM; in assay [2], 39100 nM; in assay [3], 20.5 µM; in assay [4] it was 34700 nM; in assay [5], 33600 nM; in assay [6], 45000 nM. In assay [8], the GI50 is 41600 nM. Besides, the TGI in assay [1] was greater than 100 µM; in assay [2] it was greater than 100 µM; in assay [3] it was 59.3 µM; in assay [4] it was greater than 100 µM; in assay [5] it was greater than 100 µM; in assay [6] it was greater than 100 µM. In assay [8], this compound yielded a TGI greater than 100 µM.
Regarding `O=C(CSc1nc2ccccc2nc1-c1ccccc1)Nc1ccc(Cl)cc1`, the GI50 was 32000 nM in assay [1]; 33500 nM in assay [2]; 17.5 µM in assay [3]; 25500 nM in assay [4]; 35900 nM in assay [5]; 76700 nM in assay [6]. Besides, in assay [7], the GI50 is 51700 nM. For the same compound, the TGI in assay [1] is greater than 100 µM; in assay [2], greater than 100 µM; in assay [3] it was 85.1 µM; in assay [4], greater than 100 µM; in assay [5], greater than 100 µM; in assay [6], greater than 100 µM. In assay [7], the TGI was greater than 100 µM.
Consider `COC(=O)[C@H]1C(=O)[C@@]2(C)[C@H]([C@H](OC(=O)c3ccccc3)[C@]3(O)C[C@H](OC(=O)[C@H](O)[C@@H](NC(=O)c4ccc(F)cc4)c4ccccc4)C(C)=C1C3(C)C)[C@]1(OC(C)=O)CO[C@@H]1C[C@@H]2O`, for which the GI50 in assay [1] was 11.6 nM; in assay [2], 11 nM; in assay [3] it was 0.00919 µM; in assay [4], 17.1 nM; in assay [5], 16.6 nM; in assay [6], 553 nM. In assay [8], the GI50 is 9.17 nM. Further, the TGI in assay [1] is greater than 25 µM; in assay [2], 0.833 µM; in assay [3], 0.0639 µM; in assay [4], greater than 25 µM; in assay [5], greater than 25 µM; in assay [6], greater than 25 µM.
